pIC50: −log10 of the molar value.
Assays:
[1] = biological target: T1, Lysine-specific demethylase 2A (Homo sapiens, UniProt Q9Y2K7)
T1 sequence (Q9Y2K7 whole entry): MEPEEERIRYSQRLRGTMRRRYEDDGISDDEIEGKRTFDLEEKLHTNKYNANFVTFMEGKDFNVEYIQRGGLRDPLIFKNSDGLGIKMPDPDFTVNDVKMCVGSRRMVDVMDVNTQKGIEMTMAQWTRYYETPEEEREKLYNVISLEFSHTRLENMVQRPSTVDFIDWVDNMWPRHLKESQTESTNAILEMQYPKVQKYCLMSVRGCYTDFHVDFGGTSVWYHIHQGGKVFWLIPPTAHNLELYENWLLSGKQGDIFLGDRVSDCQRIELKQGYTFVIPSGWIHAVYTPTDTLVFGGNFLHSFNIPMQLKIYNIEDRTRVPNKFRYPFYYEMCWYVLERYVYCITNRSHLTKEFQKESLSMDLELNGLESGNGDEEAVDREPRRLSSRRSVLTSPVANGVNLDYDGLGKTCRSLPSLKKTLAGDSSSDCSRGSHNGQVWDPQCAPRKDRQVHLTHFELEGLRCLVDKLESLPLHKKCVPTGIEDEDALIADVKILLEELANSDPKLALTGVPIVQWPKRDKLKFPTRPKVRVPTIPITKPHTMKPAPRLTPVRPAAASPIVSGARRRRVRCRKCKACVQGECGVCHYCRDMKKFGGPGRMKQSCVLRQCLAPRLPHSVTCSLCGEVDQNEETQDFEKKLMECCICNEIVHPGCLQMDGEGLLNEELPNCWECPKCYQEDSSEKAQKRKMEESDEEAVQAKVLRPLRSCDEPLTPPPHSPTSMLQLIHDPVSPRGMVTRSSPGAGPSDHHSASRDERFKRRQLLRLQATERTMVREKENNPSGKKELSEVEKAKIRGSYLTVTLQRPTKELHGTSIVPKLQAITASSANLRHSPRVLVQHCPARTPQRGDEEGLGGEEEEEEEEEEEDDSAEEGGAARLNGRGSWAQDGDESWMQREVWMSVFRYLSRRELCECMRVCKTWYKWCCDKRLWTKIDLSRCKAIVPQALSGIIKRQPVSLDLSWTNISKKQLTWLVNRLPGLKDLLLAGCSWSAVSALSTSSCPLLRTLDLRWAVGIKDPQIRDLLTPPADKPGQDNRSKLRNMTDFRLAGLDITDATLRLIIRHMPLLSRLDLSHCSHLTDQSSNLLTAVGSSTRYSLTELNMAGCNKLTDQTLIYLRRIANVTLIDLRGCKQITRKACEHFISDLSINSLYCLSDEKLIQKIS
Description: Inhibition of recombinant FBXL11 (unknown origin) incubated for 15 mins prior to substrate addition by AlphaScreen method

[2] = biological target: T2, Lysine-specific demethylase 4C (Homo sapiens, UniProt Q9H3R0)
T2 sequence (Q9H3R0 whole entry): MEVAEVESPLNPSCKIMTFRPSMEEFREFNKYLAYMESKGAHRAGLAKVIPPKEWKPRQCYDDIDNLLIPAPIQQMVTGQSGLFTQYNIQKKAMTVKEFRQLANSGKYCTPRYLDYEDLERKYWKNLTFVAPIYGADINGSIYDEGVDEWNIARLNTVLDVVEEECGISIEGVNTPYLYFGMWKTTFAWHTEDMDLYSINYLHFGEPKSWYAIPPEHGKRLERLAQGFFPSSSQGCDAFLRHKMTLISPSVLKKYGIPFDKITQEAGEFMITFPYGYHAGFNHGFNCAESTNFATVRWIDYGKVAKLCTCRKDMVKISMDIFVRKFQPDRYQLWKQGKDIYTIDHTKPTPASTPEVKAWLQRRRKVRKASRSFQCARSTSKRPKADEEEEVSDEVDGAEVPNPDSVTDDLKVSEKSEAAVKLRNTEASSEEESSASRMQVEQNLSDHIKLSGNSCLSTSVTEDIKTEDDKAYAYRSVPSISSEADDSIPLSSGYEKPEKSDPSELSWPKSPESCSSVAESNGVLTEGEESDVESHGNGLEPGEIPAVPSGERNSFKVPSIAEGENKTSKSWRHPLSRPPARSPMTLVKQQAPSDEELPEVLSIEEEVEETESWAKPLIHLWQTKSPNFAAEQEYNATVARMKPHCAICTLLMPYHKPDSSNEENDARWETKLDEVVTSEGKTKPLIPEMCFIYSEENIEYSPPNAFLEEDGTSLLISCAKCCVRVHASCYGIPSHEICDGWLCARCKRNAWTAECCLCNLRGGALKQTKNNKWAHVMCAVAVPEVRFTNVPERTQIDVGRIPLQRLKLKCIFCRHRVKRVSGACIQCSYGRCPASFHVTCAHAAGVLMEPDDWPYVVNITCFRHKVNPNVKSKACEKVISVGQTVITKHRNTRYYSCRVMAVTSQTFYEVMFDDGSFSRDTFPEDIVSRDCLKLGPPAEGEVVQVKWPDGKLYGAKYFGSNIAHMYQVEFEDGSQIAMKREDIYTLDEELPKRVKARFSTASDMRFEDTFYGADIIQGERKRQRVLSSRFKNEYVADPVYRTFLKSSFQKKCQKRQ
Description: Inhibition of recombinant JMJD2C (unknown origin) incubated for 15 mins prior to substrate addition by AlphaScreen method

Row | pIC50 [1] | pIC50 [2] | SMILES
1 | 5.32 | 5.46 | COC(=O)c1ccnc(-c2cc(C(=O)O)ccn2)c1
2 | 5.11 | 5.92 | Cl.N[C@@H]1C[C@H]1c1ccc(NC(=O)c2ccc(O)c3ncccc23)cc1 (relative stereo)
3 | 4.92 | 5.35 | N[C@H]1C[C@@H]1c1ccc(NC(=O)CCCNC(=O)c2ccc(O)c3ncccc23)cc1 (relative stereo)
4 | 5.09 | 5.51 | N[C@H]1C[C@@H]1c1ccc(NC(=O)CCCCNC(=O)c2ccc(O)c3ncccc23)cc1 (relative stereo)
5 | 4.92 | 5.60 | Cl.N[C@H]1C[C@@H]1c1ccc(NC(=O)CCCCCNC(=O)c2ccc(O)c3ncccc23)cc1 (relative stereo)
6 | 6.66 | 7.15 | N[C@@H]1C[C@H]1c1ccc(NC(=O)c2ccnc(-c3cc(C(=O)O)ccn3)c2)cc1 (relative stereo)
7 | 4.91 | 5.57 | COC(=O)c1ccnc(-c2cc(C(=O)Nc3ccc([C@@H]4C[C@H]4N)cc3)ccn2)c1.Cl (relative stereo)

— ChEMBL document CHEMBL3108715, “Pan-histone demethylase inhibitors simultaneously targeting Jumonji C and lysine-specific demethylases display high anticancer activities” (J Med Chem, 2014)
